Test results: paper PMC6383986, “Fragment-Based Covalent Ligand Screening Enables Rapid Discovery of Inhibitors for the RBR E3 Ubiquitin Ligase HOIP” (Journal of the American Chemical Society, 2019)

Experiments:
Test in all cases: ABPP quantitative MS, MCF7
Type in all cases: cell-based
Settings in all cases: 30 μM (11a) 7 h vs DMSO, then 3 μM (15) 2 h
ALDH6A1 = target: T1, ALDH6A1 (Homo sapiens, UniProt Q02252)
T1 construct: endogenous in cells; host or cells: HEK293T (A21); MCF7 (A27)
Protocol: (§1) control and cells treated with control compounds (11i) and (17) at 30 µM). HOIP RBR wild type […]
(§2) nm, indicating low to no labelling by (11a), and a dominant signal from the 800 channel (green).
(§3) C = HOIP RBR control (0.5 µg).
(§4) 5.2 Activity-based protein profiling – Enrichment and LC-MS
(§5) Cell culture and transfection, compound treatment, ha rvest and lysis
(§6) HEK293T cells were cultured and transfected as describ ed in section 4.8 above. MCF7 cells were seeded in 100 mm Petri dishes at 6 × 10^5 cells/dish and cultured overnight at 37 °C as described in section 4.8 above. Both cell types were treated with inhibitor (11a) (30 µM final concentration) or DMSO as described above, incubating for 7 h at 37 °C, followed by addition of clickable probe (15) (3 µM final concentration) and incubation for an additional 2 h. The cells were then harvested and lysed (50 mM Tris-HCl, pH 7.5, 1.5 mM MgCl2, 150 mM NaCl, 5% glycerol, 0.8% v/v IGEPAL-CA630, 25 mM NaF, 1 mM Na3VO4, complete protease inhibitor), and the protein concentration was determined by the BCA assay as described in section 4.7 above.
(§7) Enrichment of TCO-labelled proteins
(§8) Similar to a previously described protocol,22 tetrazine beads were generated by incubating high capacity neutravidin beads (500 µL; Thermo Scientific) with 0.1 µmol tetrazine-PEG4-biotin (Jena Bioscience) in PBS buffer over night at 4 °C, followed by blocking with 5 µL 100 mM biotin in DMSO for 30 minutes at 4 °C. The beads were washed 3× with buffer (50 mM Tris-HCl pH 7.4, 5% glycerol, 1.5 mM MgCl2, 150 mM NaCl, 1 mM Na3VO3, 5 mM NaF) supplemented with 0.4% IGEPAL CA-630 and adjusted to a 5% v/v slurry.
(§9) Lysate with a protein concentration of approx. 2 mg/mL (500 µL) were added to the TCO beads (35 µL) on a 96-well filter plate (Porvair, Dunn #240002) and incubated at 4°C for 2 h. After incubation, beads were washed using a vacuum manifold with 5 mL wash buffer 1 (WB1) (50 mM […]
(§10) (50 mM HEPES pH 8.5, 2 M urea), and 5 mL WB4 (50 mM HEPES pH 8.5). Proteins were then eluted by on bead digestion: 60 µL elution buffer (50 mM HEPES pH 8.5, 5 mM Tris-(2-carboxyethyl)phosphine, 15 mM chloroacetamide, 0.004 µg LysC/ µL (Wako chemicals), 0.004 µg trypsin/µL (Promega)) were added to the washed beads and incubated over night at room temperature. Eluates were collected by centrifugation, beads incubated with an additional 60 µL WB4, eluted and both eluates were combined and lyophilized. […]
(§11) proportional to the number of ions; this measure is referred to as ion area.24 Spectra matching to peptides were filtered according to the following criteria: mascot ion score >15, signal-to-background of the precursor ion >4, and signal -to-interference >0.5. Fold-changes were corrected for isotope purity and adjusted for interference caused by co-eluting nearly isobaric peaks.25 Protein quantification was derived from individual spectra matching to distinct peptides by using a sum-based bootstrap algorithm; 95% confidence intervals were calculated for all protein fold-changes that were quantified with more than three spectra.23 Relative protein abundance s were generated on the basis of MS1 abundances .26 Briefly, XIC peaks were matched to identified peptides. […] These values were then summed, and the mean was calculated.
(§12) In cases where fewer than 3 sequences were associated, the mean was calculated using XIC intensities from either one or two sequences.
(§13) Proteins were filtered for >1 quantified spectra matches (qusm). Residual binding was calculated […]

DHX36 = target: T2, DHX36 (Homo sapiens, UniProt Q9H2U1)
T2 construct: endogenous in cells; host or cells: MCF7
T2 sequence (Q9H2U1 whole entry): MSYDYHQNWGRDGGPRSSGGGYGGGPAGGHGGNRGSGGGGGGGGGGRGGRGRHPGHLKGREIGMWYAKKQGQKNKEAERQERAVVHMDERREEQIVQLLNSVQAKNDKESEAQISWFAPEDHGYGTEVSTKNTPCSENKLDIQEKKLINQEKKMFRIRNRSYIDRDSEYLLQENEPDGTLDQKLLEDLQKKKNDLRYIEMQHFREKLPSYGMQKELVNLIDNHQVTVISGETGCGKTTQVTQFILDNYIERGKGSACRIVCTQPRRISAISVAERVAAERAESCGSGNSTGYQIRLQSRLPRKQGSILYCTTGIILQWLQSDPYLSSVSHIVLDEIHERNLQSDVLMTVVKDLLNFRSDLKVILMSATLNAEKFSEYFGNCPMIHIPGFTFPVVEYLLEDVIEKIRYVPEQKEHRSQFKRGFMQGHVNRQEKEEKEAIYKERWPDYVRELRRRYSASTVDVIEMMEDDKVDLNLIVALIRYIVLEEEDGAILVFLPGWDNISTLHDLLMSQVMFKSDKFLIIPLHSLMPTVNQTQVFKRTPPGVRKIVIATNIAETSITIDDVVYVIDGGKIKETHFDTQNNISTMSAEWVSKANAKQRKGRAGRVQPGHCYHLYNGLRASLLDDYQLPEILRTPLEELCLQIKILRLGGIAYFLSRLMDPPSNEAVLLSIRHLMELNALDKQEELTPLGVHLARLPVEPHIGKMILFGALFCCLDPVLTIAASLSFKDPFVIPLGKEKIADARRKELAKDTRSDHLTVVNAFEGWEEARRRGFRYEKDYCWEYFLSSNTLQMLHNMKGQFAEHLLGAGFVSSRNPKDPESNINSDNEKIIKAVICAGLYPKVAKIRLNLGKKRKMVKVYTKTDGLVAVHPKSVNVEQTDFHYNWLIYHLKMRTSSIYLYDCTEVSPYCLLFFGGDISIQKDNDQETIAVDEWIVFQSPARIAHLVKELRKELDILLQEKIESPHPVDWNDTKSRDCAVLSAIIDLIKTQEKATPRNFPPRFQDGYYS
Protocol: as §1, §2, §3, §4, §5, §6, §7, §8, §9, §10, §11, §12, §13

GCLC = target: T3, GCLC (Homo sapiens, UniProt P48506)
T3 construct: endogenous in cells; host or cells: MCF7
T3 sequence (P48506 whole entry): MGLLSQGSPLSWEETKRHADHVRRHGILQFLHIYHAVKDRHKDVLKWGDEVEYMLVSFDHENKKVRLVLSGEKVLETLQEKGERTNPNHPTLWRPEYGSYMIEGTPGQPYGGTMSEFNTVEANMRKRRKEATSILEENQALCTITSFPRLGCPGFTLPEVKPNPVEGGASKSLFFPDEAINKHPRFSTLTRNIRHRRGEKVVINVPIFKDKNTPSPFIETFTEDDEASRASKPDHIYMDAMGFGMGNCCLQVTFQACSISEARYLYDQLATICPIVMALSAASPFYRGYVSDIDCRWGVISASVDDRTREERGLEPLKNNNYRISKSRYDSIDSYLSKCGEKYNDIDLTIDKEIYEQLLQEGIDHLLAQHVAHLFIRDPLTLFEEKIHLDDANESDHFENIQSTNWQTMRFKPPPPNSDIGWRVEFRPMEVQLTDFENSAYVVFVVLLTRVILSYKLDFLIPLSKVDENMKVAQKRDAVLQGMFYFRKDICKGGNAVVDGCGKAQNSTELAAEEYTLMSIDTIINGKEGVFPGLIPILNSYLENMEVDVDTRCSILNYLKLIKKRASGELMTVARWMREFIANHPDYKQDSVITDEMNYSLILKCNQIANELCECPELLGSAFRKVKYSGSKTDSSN
Protocol: as §1, §2, §3, §4, §5, §6, §7, §8, §9, §10, §11, §12, §13

SMG9 = target: T4, SMG9 (Homo sapiens, UniProt Q9H0W8)
T4 construct: endogenous in cells; host or cells: MCF7
T4 sequence (Q9H0W8 whole entry): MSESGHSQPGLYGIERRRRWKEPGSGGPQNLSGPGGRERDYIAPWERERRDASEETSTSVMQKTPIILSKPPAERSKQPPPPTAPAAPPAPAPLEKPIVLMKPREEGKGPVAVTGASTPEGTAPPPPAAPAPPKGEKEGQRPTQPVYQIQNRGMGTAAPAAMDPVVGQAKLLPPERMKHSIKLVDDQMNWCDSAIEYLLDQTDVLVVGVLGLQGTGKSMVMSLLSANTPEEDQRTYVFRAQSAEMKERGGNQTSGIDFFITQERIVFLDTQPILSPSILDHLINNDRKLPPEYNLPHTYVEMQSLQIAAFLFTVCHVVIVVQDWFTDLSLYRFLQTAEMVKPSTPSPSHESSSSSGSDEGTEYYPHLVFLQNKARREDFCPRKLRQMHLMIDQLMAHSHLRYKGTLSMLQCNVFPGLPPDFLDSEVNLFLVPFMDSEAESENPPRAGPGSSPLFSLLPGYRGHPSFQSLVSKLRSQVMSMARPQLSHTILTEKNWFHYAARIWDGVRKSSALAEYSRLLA
Protocol: as §1, §2, §3, §4, §5, §6, §7, §8, §9, §10, §11, §12, §13

SRBD1 = target: T5, SRBD1 (Homo sapiens, UniProt Q8N5C6)
T5 construct: endogenous in cells; host or cells: MCF7
T5 sequence (Q8N5C6 whole entry): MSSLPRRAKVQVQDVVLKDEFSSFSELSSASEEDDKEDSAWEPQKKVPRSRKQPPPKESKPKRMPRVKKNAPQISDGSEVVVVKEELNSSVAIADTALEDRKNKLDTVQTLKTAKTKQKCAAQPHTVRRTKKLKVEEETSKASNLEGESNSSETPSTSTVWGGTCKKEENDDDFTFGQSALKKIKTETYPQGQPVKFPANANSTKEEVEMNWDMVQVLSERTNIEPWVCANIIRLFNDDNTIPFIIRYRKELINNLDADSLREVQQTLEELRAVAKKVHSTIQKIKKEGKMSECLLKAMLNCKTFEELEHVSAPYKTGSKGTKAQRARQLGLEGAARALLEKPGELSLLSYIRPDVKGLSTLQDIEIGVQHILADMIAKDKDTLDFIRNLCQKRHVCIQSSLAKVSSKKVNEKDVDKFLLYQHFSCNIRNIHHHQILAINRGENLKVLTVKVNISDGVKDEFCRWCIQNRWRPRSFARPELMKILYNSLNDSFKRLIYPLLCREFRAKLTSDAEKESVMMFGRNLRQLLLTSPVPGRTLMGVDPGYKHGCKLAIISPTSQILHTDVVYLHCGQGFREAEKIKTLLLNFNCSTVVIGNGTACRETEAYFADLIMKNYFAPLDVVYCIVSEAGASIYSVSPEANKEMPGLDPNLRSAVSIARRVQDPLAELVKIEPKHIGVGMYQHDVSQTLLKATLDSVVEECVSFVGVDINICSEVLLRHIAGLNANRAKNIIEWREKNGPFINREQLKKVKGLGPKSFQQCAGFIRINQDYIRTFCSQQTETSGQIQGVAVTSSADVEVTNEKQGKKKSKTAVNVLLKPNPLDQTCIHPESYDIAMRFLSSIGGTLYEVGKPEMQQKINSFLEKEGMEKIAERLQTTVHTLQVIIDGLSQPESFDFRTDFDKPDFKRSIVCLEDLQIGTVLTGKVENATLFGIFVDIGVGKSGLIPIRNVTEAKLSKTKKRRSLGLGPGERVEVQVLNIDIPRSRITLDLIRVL
Protocol: as §1, §2, §3, §4, §5, §6, §7, §8, §9, §10, §11, §12, §13

T1 sequence (Q02252 34-535): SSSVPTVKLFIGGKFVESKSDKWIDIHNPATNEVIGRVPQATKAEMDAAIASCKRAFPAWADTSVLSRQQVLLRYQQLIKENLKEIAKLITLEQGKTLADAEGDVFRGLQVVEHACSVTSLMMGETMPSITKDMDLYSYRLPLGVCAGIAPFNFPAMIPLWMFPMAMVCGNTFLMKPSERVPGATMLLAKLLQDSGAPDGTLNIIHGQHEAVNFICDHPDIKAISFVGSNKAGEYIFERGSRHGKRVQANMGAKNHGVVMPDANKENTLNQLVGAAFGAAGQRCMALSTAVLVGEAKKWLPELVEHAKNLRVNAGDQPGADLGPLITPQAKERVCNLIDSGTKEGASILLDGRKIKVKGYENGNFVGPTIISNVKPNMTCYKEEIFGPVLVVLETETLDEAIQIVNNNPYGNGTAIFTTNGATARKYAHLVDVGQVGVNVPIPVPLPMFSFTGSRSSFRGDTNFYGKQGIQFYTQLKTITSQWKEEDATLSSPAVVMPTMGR

ratio: mean ratio between control and competition samples, ALDH6A1 (ALDH6A1): -0.9838 log2
ratio: mean ratio between control and competition samples, DHX36 (DHX36): -0.8884 log2
ratio: mean ratio between control and competition samples, GCLC (GCLC): -0.8853 log2
ratio: mean ratio between control and competition samples, SMG9 (SMG9): -0.8383 log2
ratio: mean ratio between control and competition samples, SRBD1 (SRBD1): -0.7897 log2
SMILES: COC(=O)/C=C/CNC(=O)c1cc2c([nH]c1=O)CCCC2 [Compound 11a]
